How the values were obtained:
cholesterol = assay: Antilipemic effect: percent total cholesterol inhibition in plasma of rats given an olive oil-cholesterol mixture; format: in vivo, male Wistar rats; settings: oral 100 mg/kg, plasma 8 hours after dosing, Wistar rat; read-out: Anti-lipemic effect, CS (percent cholesterol inhibition)
Outline: (§1)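 Male Wistar rats, seven weeks old, 200 to 220 g, 5 per group, dosed orally at 100 or 200 mg/kg in olive oil-cholesterol mixture (15% cholesterol) at 10 ml/kg. Plasma triglycerides measured at 2 hours, total cholesterol at 8 hours, by enzymatic kits; percent inhibition calculated relative to vehicle control and untreated normal groups.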

esterase = assay: Esterase inhibiting activity; format: biochemical; settings: rat liver microsome esterase, methyl butyrate substrate, pH 8.0, 37° C., 60 minutes; read-out: IC50 for esterases
Experimental: A 10 micromole quantity of methyl butyrate in a 50% ethanol solution is added as a substrate to a specified amount of buffer solution containing 0.1 mole of trishydrochloric acid (pH 8.0). To the mixture is further added a 50% ethanol solution of the compound of the invention, immediately followed by addition of an esterase solution prepared from a purified microsome fraction of the liver of a rat (adjusted to hydrolyze 9 micromoles of methyl butyrate at 37° C. in one hour) as an enzyme solution. The mixture is reacted at 37° C. for 60 minutes.
After the reaction, alkaline hydroxylamine is added to the mixture to form a hydroxamic acid derivative of methyl butyrate, and a ferric salt is added to the derivative. The resulting red color is colorimetrically determined (at a wavelength of 540 nm) to determine the amount of remaining methyl butyrate. The esterase inhibiting ratios of the present compound at least at three concentrations are plotted as ordinate, and the logarithms of the concentrations as abscissa to obtain a line, which gives the 50% inhibition concentration (IC50).

chymotripsin = chymotripsin (Bos taurus, UniProt P00766); assay: Chymotripsin inhibiting activity; format: biochemical; settings: 0.5 h; compound 1×10^-4 mole, ATEE substrate, pH 8.0, 37° C.; read-out: Percent chymotripsin inhibition
Experimental: Chymotripsin (0.1 unit) serving as an enzyme solution is added to a specified quantity of buffer solution containing 0.1 mole of trishydrochloric acid (pH 8.0). To the mixture is further added a 50% ethanol solution of the compound of the invention so that the resulting mixture contains the compound in a concentration of 1×10^-4 mole. The mixture is reacted at 37° C. for 20 minutes.
On completion of the reaction, 10 micromoles of N-acetyl-L-thyrosine ethyl ester (ATEE) serving as a substrate is added to the mixture, and the resulting mixture is reacted at 37° C. for 30 minutes.
After the completion of the reaction, the amount of remaining ATEE is determined by the same hydroxamic acid method as above. The percent chymotripsin inhibition is given by [formula] wherein A is the amount of hydrolyzed esters in the reaction system not containing the compound of the invention, and B is the amount of hydrolyzed esters in the reaction system containing the present compound.

triglycerides = assay: Antilipemic effect: percent triglycerides inhibition in plasma of rats given an olive oil-cholesterol mixture; format: in vivo, male Wistar rats; settings: oral 100 mg/kg, plasma 2 hours after dosing, Wistar rat; read-out: Anti-lipemic effect, TG (percent triglycerides inhibition)
Outline: as §1

Acute toxicity = settings: rat, in vivo, po
Excerpt: Six-week-old male Wistar rats weighing 180 to 200 g are used, 5 rats in each group. Each compound of the invention is suspended in a 30% aqueous solution of polyethylene glycol 6000 and orally given to the rat at the dosage shown in Table 2. The animals are checked for poisoning, body weight and survival to determine the LD50 value.

[1] = reported in the literature; cited from earlier work

SMILES | inhibition in vivo at 100 mg/kg (cholesterol) [%] | IC50 (esterase) [nM] | inhibition at 100 µM (chymotripsin) [%] | inhibition in vivo at 100 mg/kg (triglycerides) [%] | LD50 (Acute toxicity) [mg/kg] | Side effects [1]
CCCC(CC)C(=O)COS(=O)(=O)c1c(C)cc(C)cc1C (stereo not drawn) [Compound 151] | 77 | 32000 | 8 | 83 | > 3000 | –
CCC(C)CC(=O)COS(=O)(=O)c1c(C)cc(C)cc1C (stereo not drawn) [Compound 153] | 83 | 640 | 9 | 82 | > 4000 | –
CCCC(C)CC(=O)COS(=O)(=O)c1c(C)cc(C)cc1C (stereo not drawn) [Compound 158] | 70 | 400 | 17 | 74 | > 4000 | –
CCCCCC(C)C(=O)COS(=O)(=O)c1c(C)cc(C)cc1C (stereo not drawn) [Compound 162] | 77 | 2000 | 32 | 75 | > 4000 | –
O=C(O)c1cccnc1 [nicotinic acid] | – | – | – | – | – | pruritus and cutaneous flushing due to vasodilatation, gastrointestinal disorders, abnormalities in liver function and glucose intolerance

From patent US4489091A, “Antilipemic and anti-inflammatory compositions containing sulfonate derivatives” (Taiho Pharmaceutical Company Limited, priority 1980, dated 1984)
